# Test results taken from patent US20230135761A1, “TRANSGENIC PLANTS HAVING PROLONGED RIPENING AND REDUCED SUSCEPTIBILITY TO PATHOGENS” (MIGAL GALILEE RESEARCH INSTITUTE LTD, priority 2020, published 2023).
# Test system: ICDH1 mRNA
# Test: ICDH1 mRNA levels by real time PCR in 1-MCP-treated tomato fruits
# Format: in vivo, Solanum lycopersicum; cv. Micro Tom
# Conditions: 1-MCP-treated vs untreated Micro-Tom tomatoes; 24 hr at 20° C.; stages MG, BRK, EO; FIG. 2
# Protocol: Tomato (Solanum lycopersicum; cv. Micro Tom) plants were grown under natural light in a climate-controlled greenhouse, at 24° C. during the day and 18° C. during the night. 1-MCP was applied using SmartFresh powder (Rohm and Haas, Philadelphia, Pa., USA) containing 0.14% 1-MCP as active ingredient, dissolved in warm water at a concentration of 2,000 nL·mL^−1 1-MCP (stock solution). Fruits were enclosed in a 30 L airtight barrel and the stock solution was injected to a final concentration of […]. Treatment duration was 24 hr at 20° C. For the control, fruits were treated identically excluding 1-MCP application (Gamrasni et al., 2017).
# RNA was extracted using NucleoSpin® RNA Plant kit (Macherey-Nagel) according to the manufacturer's protocol. cDNA was prepared from 1 μg total RNA with Verso cDNA Synthesis Kit (ThermoFisher Scientific). The reaction was performed at 42° C. for 30 min. followed by inactivation at 95° C. for 2 min. […] Relative expression ratio was normalized to the S1ASR gene (Solyc04g071610) used as an internal control (Relative RNA levels were determined by the delta-delta Ct method). The significance of results (n=3) was evaluated by independent t-test at *P<0.05 using the SPSS Statistics 20 software (IBM, USA).
structure (smiles),measurement,value
"CC1=CC1 [1-MCP, 1-methylcyclopropene]",ICDH1 mRNA production / levels,reduced significantly
